Test results as given in patent US20050272752A1, “Complexes of E-2-Methoxy-N-(3-{4-[3-methyl-4-(6-methyl-pyridin-3-yloxy)-phenylamino]-quinazolin-6-yl}-allyl)-acetamide and methods of preparing same” (Pfizer Inc, priority 2004, published 2005).

Columns and labels:
[1] = hygroscopic stability of the sesquisuccinate complex; assay type: physicochemical; conditions: solid complex; relevant to weight changes during manufacture of capsules or tablets
[2] = test system: another carcinoma which does not express the EGF receptor; conditions: cited from earlier work
[3] = test system: transplanted human mammary carcinoma which expresses epidermal growth factor receptor tyrosine kinase (EGFR); conditions: EGFR-expressing carcinoma in athymic nude mice; cited from earlier work

Structure (SMILES) | hygroscopic stability [1] | growth of carcinoma not expressing the EGF receptor [2] | growth of transplanted human mammary carcinoma [3]
COCC(=O)NC/C=C/c1ccc2ncnc(Nc3ccc(Oc4ccc(C)nc4)c(C)c3)c2c1 [sesquisuccinate complex, E-2-Methoxy-N-(3-{4-[3-methyl-4-(6-methyl-pyridin-3-yloxy)-phenylamino]-quinazolin-6-yl}-allyl)-acetamide] | substantially hygroscopically stable | – | –
O=CN/C=C/c1cc(O)ccc1O [erbstatin] | – | without effect on the growth | selectively attenuates the growth
